Source: publication PMC7671950 (Cellular and molecular neurobiology, 2020)
Like-named read-outs stand apart in the source and are kept apart here.

What was measured:
mMOR-1 [1] = target: T1, mMOR-1 (Mus musculus, UniProt P42866); assay: [35S]GTPγS functional assay; format: biochemical; details: for functional character at MOR-1: [35S]GTPγS functional assays; for Emax: read-out: mMOR-1 Emax; for mMOR-1 Emax: percent maximal stimulation relative to DAMGO at 1000 nM
6TM/E11 [2] = target: T2, 6TM/E11 (Mus musculus, UniProt P42866)
T2 sequence (P42866 95-386 limits assumed): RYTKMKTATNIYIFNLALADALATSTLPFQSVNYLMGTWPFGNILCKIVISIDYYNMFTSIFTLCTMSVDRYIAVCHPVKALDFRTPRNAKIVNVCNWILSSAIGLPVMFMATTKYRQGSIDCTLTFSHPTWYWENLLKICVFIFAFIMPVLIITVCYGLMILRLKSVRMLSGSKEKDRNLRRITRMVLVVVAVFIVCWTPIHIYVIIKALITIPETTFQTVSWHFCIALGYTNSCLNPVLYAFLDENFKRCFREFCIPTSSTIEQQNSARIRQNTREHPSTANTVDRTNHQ

mMOR-1 [3] = target: T1, mMOR-1; details: read-out: Ki mMOR-1; values from literature; ref Majumdar et al. 2012; cited from earlier work
mDOR-1 = mDOR-1 (Mus musculus, UniProt P32300); details: read-out: Ki mDOR-1; values from literature; ref Majumdar et al. 2012; cited from earlier work
Sequence of mDOR-1 (P32300 whole entry): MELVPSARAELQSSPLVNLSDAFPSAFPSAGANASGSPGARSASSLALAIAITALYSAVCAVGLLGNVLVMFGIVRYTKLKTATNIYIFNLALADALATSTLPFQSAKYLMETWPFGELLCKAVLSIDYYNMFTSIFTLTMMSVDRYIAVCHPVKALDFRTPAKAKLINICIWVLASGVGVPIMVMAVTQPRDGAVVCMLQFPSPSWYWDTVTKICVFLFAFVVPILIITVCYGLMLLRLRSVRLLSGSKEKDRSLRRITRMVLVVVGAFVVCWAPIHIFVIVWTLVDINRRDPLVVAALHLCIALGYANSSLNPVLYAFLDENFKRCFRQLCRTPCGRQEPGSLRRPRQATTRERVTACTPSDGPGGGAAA

[4] = target: triple knockout mouse brain (Mus musculus, UniProt P42866); details: read-out: Ki Triple KO; values from literature; ref Majumdar et al. 2012; cited from earlier work
Sequence of triple knockout mouse brain (P42866 96-398): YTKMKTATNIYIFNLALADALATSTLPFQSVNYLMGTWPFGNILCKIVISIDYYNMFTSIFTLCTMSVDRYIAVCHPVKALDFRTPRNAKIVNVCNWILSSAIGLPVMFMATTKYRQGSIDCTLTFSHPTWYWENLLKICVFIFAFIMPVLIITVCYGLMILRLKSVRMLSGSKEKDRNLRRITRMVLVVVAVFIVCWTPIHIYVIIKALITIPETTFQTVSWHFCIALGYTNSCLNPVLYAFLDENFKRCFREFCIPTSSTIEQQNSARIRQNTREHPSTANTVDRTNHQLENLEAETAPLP

mKOR-1 = mKOR-1 (Mus musculus, UniProt P33534); details: read-out: Ki mKOR-1; values from literature; ref Majumdar et al. 2012; cited from earlier work
Sequence of mKOR-1 (P33534 whole entry): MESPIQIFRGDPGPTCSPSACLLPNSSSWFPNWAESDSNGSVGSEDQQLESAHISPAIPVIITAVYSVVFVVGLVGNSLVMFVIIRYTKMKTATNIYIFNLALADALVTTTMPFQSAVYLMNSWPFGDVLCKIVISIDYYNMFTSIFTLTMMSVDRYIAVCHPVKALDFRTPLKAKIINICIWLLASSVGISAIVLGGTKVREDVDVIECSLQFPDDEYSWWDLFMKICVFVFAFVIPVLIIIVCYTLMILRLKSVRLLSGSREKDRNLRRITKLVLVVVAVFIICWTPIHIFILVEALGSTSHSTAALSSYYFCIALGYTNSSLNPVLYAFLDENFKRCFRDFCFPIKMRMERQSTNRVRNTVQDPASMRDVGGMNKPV

6TM/E11 [5] = target: T2, 6TM/E11; details: read-out: Ki 6TM/E11; values from literature; ref Majumdar et al. 2012; cited from earlier work
[6] = read-out: mMOR-1 EC50, [35S]GTPγS binding, mean ± SEM, 3 replications

T1 sequence (P42866 whole entry): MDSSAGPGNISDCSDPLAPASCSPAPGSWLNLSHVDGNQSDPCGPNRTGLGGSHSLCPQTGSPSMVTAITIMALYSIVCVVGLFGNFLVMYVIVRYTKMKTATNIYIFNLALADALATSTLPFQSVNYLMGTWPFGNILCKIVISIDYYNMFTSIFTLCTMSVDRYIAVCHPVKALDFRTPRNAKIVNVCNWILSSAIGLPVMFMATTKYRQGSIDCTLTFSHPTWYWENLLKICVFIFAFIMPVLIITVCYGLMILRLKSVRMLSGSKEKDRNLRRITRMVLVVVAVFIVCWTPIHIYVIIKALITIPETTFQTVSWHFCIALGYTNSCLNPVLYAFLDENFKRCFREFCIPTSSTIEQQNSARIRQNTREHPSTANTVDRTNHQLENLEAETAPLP

For C=CCN1CC[C@]23c4c5ccc(O)c4O[C@H]2[C@H](NC(=O)c2ccc(N=[N+]=[N-])c(I)c2)CC[C@@]3(O)[C@H]1C5 [IBzA 10, N-((4R,4aS,7R,7aR,12bS)-3-Allyl-4a,9-dihydroxy-2,3,4,4a,5,6,7,7a-octahydro-1H-4,12-methanobenzofuro[3,2-e]isoquinolin-7-yl)-4-azido-3-iodobenzamide], the EC50 (mMOR-1 [1]) was 0.86 ± 0.24 nM, the “functional character at MOR-1” value (mMOR-1 [1]) was “full agonists” and the Emax (mMOR-1 [1]) was 122 ± 3%. It also gave a Ki (6TM/E11 [2]) of 4.64 ± 0.2 nM.
In the case of C#CCN1CC[C@]23c4c5ccc(O)c4O[C@H]2[C@H](NC(=O)c2ccc(N=[N+]=[N-])c(I)c2)CC[C@@]3(O)[C@H]1C5 [Alkynyl-IBzA 17, 4-Azido-N-((4R,4aS,7R,7aR,12bS)-4a,9-dihydroxy-3-(prop-2-yn-1-yl)-2,3,4,4a,5,6,7,7a-octahydro-1H-4,12-methanobenzofuro[3,2-e]isoquinolin-7-yl)-3-iodobenzamide], the EC50 (mMOR-1 [1]) is reported as 1.1 ± 0.1 nM, the “functional character at MOR-1” value (mMOR-1 [1]) is reported as “full agonists” and the Emax (mMOR-1 [1]) is reported as 103 ± 3%. It also gave a Ki (6TM/E11 [2]) of 12 ± 1.63 nM.
In the case of O=C(N[C@@H]1CC[C@@]2(O)[C@H]3Cc4ccc(O)c5c4[C@@]2(CCN3CC2CC2)[C@H]1O5)c1cccc(I)c1 [IBNtxA, 3’-iodobenzoylnaltrexamide], the “mMOR-1 Emax” value (mMOR-1 [1]; mean ± SEM) is given as 101 ± 3%, the EC50 (mMOR-1 [1]; [6]) is given as 0.49 ± 0.12 nM and the Ki (mMOR-1 [3]) is given as 0.11 ± 0.02 nM. The Ki (mDOR-1) was 0.24 ± 0.1 nM, the Ki [4] was 0.12 ± 0.04 nM and the Ki (mKOR-1) was 0.03 ± 0.001 nM. The Ki (6TM/E11 [5]) was 0.16 ± 0.04 nM.
In the case of C=CCN1CC[C@]23c4c5ccc(O)c4O[C@H]2[C@H](NC(=O)c2cccc(I)c2)CC[C@@]3(O)[C@H]1C5 [IBNalA], the “mMOR-1 Emax” value (mMOR-1 [1]; mean ± SEM) is given as 75 ± 3.5%, the EC50 (mMOR-1 [1]; [6]) is given as 1.4 ± 0.3 nM and the Ki (mMOR-1 [3]) is given as 0.22 ± 0.12 nM. The Ki (mDOR-1) was 2.55 ± 0.18 nM, the Ki (mKOR-1) was 0.08 ± 0.06 nM and the Ki (6TM/E11 [5]) was 0.25 ± 0.12 nM.
